Results: the NIST ThermoML archive (doi:10.1021/je100940w)
Numbers after ± are expanded uncertainties.

Legend:
[1] = refractive index (Na D-line) (dimensionless); details: 298.15 K; 101.33 kPa; Liquid; Standard Abbe refractometry
[2] = 298.15 K; 101.33 kPa; Liquid; Vibrating tube method

refractive index [1]	SMILES	mass density [2]
1.3949 ± 0.0005	CCC(C)O (stereo not given) [butan-2-ol]	802.35 ± 0.24 kg/m3
1.3332 ± 0.0005	O [water]	–

SMILES	refractive index [1]	mass density [2]
CC(=O)CC(C)C [4-methylpentan-2-one]	1.3936 ± 0.0005	795.94 ± 0.14 kg/m3
